Assay results reported in patent US20110305637A1, “RADIOLABELLED PDE10 LIGANDS” (Janssen Pharmaceutica N.V., priority 2009, published 2011).

Columns and labels:
rat PDE10A2 = target: T1, rat PDE10A2 (Rattus norvegicus, UniProt Q9QYJ6); test: rat PDE10A2-cAMP inhibition; type: biochemical; settings: read-out: pIC50, rat PDE10A2-cAMP inhibition (converted)
T1 sequence (Q9QYJ6 1-794): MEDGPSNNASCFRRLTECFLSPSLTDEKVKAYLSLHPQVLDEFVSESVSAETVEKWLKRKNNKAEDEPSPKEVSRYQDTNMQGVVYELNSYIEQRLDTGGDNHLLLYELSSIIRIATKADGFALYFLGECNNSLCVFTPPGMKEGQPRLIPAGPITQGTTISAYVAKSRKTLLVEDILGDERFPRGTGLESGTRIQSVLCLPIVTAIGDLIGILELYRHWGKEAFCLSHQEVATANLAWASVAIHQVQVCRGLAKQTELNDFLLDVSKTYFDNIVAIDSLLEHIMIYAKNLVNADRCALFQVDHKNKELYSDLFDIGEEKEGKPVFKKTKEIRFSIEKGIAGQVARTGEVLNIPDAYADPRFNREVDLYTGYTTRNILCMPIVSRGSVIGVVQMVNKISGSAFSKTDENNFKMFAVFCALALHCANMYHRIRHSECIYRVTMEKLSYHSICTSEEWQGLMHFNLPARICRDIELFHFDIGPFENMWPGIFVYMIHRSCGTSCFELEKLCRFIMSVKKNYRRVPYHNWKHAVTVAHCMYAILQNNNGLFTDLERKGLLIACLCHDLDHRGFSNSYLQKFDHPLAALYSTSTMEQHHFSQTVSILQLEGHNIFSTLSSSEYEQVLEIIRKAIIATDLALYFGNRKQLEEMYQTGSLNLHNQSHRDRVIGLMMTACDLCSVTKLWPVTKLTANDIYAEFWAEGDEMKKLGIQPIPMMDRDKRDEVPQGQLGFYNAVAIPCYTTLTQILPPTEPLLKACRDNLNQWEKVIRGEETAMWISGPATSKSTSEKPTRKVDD
Method: The affinity of compounds Ia and Ib was determined by measuring rat PDE10A2-cAMP inhibition: […]

PDE8A1 = PDE8A1 (Homo sapiens, UniProt O60658); test: selectivity over PDE8A1; type: biochemical
PDE8A1, sequence (O60658 whole entry, species assumed): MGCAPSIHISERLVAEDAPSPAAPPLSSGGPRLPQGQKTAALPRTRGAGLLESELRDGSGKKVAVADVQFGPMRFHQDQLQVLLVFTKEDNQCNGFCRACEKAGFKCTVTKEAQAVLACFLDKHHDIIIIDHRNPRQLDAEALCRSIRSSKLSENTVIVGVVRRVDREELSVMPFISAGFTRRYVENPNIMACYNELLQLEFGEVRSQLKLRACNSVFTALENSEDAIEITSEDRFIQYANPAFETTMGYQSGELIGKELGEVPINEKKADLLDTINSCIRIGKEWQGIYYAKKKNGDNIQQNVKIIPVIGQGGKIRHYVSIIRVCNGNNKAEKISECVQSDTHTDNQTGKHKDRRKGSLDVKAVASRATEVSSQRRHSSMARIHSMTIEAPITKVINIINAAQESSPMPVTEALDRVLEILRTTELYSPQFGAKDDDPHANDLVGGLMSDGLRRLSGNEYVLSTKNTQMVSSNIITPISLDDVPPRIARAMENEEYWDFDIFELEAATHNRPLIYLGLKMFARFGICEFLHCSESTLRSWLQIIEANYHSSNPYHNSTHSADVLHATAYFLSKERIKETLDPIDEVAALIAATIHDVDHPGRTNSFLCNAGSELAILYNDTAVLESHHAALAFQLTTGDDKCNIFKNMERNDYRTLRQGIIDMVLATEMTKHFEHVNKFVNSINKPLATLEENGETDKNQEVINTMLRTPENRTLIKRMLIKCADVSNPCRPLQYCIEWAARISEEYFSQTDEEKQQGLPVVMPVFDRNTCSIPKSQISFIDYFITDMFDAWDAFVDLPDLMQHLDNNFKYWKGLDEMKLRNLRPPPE

IC50 (rat PDE10A2)	selective over PDE8A1 (PDE8A1)	melting point	SMILES
0.479 nM	–	–	FCCn1cc(-c2ccncc2)c(-c2ccc(OCc3ccc4ccccc4n3)cc2)n1 [Ia, 2-{4-[1-(2-Fluoroethyl)-4-pyridin-4-yl-1H-1-pyrazol-3-yl]-phenoxymethyl}-quinoline]
0.692 nM	> 200 fold	101.9 °C	FCCCn1cc(-c2ccncc2)c(-c2ccc(OCc3ccc4ccccc4n3)cc2)n1 [Ib, 2-{4-[1-(3-Fluoropropyl)-4-pyridin-4-yl-1H-1-pyrazol-3-yl]-phenoxymethyl}-quinoline]
